# Data as given in US20240294533A1, “2-(HET)ARYL-SUBSTITUTED CONDENSED HETEROCYCLE DERIVATIVES AS PEST CONTROL AGENTS” (Bayer Aktiengesellschaft, priority 2021, published 2024).
# Like-named read-outs stand apart in the source and are kept apart here.
# Columns and labels:
# Diabrotica balteata = Diabrotica balteata spray test; type: in vivo; settings: wheat grains, after 7 days; for pest or weed control at 100 g/ha / pest or weed control at 125 g/ha: Diabrotica balteata, 168 h, read-out: efficacy; for pest or weed control at 125 g/ha: 125 g/ha (=40 μg/cavity)
# Excerpt: Diabrotica balteata—Spray Test Solvent: 78 parts by weight of acetone • • 1.5 parts by weight of dimethylformamide Emulsifier: alkylaryl polyglycol ether An appropriate active ingredient formulation is produced by dissolving 1 part by weight of active ingredient with the stated parts by weight of solvent and making the solution up to the desired concentration with water containing an emulsifier concentration of 1000 ppm. Further test concentrations are produced by diluting the formulation with emulsifier-containing water. Pre-swollen wheat grains (Triticum aestivum) are incubated in a multiwell plate filled with agar and a little water for one day (5 seed grains per cavity). The germinated wheat grains are sprayed with an active ingredient formulation of the desired concentration. Subsequently, each cavity is infected with 10-20 beetle larvae of Diabrotica balteata. After 7 days, efficacy in % is determined. 100% means that all wheat plants have grown as in the untreated, uninfected control; 0% means that no wheat plant has grown.
# Nezara viridula [1] = test: Nezara viridula spray test (plants sprayed, then infected); type: in vivo; settings: 500 g/ha, barley plants, after 4 days
# Excerpt: (§1) Nezara viridula—Spray Test Solvent: 78.0 parts by weight of acetone • • 1.5 parts by weight of dimethylformamide Emulsifier: alkylaryl polyglycol ether An appropriate active ingredient formulation is produced by dissolving 1 part by weight of active ingredient with the stated parts by weight of solvent and making the solution up to the desired concentration with water containing an emulsifier concentration of 1000 ppm. Further test concentrations are produced by diluting the formulation with emulsifier-containing water. Barley plants (Hordeum vulgare) are sprayed with an active ingredient formulation of the desired concentration and are infected with larvae of the Southern green shield bug (Nezara viridula). After 4 days, efficacy in % is determined. 100% means that all of the shield bugs have been killed; 0% means that none of the shield bugs have been killed.
# Spodoptera frugiperda = Spodoptera frugiperda spray test (maize leaf discs); type: in vivo; settings: after 7 days; for pest or weed control at 100 g/ha: Spodoptera frugiperda, foliar, 168 h, read-out: efficacy
# Excerpt: Spodoptera Frusiperda—Spray Test Solvent: 78.0 parts by weight of acetone • • 1.5 parts by weight of dimethylformamide Emulsifier: alkylaryl polyglycol ether An appropriate active ingredient formulation is produced by dissolving 1 part by weight of active ingredient with the stated parts by weight of solvent and making the solution up to the desired concentration with water containing an emulsifier concentration of 1000 ppm. Further test concentrations are produced by diluting the formulation with emulsifier-containing water. Leaf discs of maize (Zea mays) are sprayed with an active ingredient formulation of the desired concentration and, after drying, populated with caterpillars of the fall armyworm (Spodoptera frugiperda). After 7 days, efficacy in % is determined. 100% means that all the caterpillars have been killed; 0% means that no caterpillar has been killed.
# Meloidogyne incognita = Meloidogyne incognita test; type: in vivo; settings: lettuce, gall formation after 14 days; for pest or weed control at 20 ppm: Meloidogyne incognita, 336 h, read-out: nematicidal efficacy
# Excerpt: Meloidogyne incognita Test Solvent: 125.0 parts by weight of acetone An appropriate active ingredient formulation is produced by mixing 1 part by weight of active ingredient with the stated amount of solvent and diluting the concentrate to the desired concentration with water. Vessels are filled with sand, active ingredient solution, an egg/larvae suspension of the southern root-knot nematode (Meloidogyne incognita) and lettuce seeds. The lettuce seeds germinate and the plants develop. The galls develop on the roots. After 14 days, the nematicidal efficacy in % is determined by the formation of galls. 100% means that no galls were found; 0% means that the number of galls on the treated plants corresponds to the untreated control.
# Nezara viridula [2] = test: Nezara viridula spray test (infected barley plants sprayed); type: in vivo; settings: 100 g ai/ha, after 4 days
# Excerpt: as §1, with “52.5” for “78.0”, “7” for “• 1.5”, “water. If the addition of ammonium salts or/and penetrants is required, these are each added in a concentration of 1000 ppm to the formulation solution.” for “water.”, “vulgare) infected with larvae of the Southern green shield bug (Nezara viridula)” for “vulgare)”, “concentration.” for “concentration and are infected with larvae of the Southern green shield bug (Nezara viridula).”
# Myzus persicae = Myzus persicae oral test; type: in vivo; settings: 4 ppm, after 5 days
# Method: Myzus persicae—Oral Test Solvent: 100 parts by weight of acetone An appropriate active ingredient formulation is produced by dissolving 1 part by weight of active ingredient with the specified parts by weight of solvent and making the solution up to the desired concentration with water. 50 μl of the active ingredient formulation is transferred into microtitre plates and made up to a final volume of 200 μl with 150 μl of IPL41 insect medium (33%+15% sugar). Subsequently, the plates are sealed with parafilm, which a mixed population of green peach aphids (Myzus persicae) within a second microtitre plate is able to puncture and imbibe the solution. After 5 days, efficacy in % is determined. 100% means that all the aphids have been killed; 0% means that no aphids have been killed.
# [3] = log P by HPLC on reversed-phase column (C18); type: physicochemical; settings: LC-UV
# Method: log P Values The log P values were determined according to EEC Directive 79/831 Annex V.A8 by HPLC (high-performance liquid chromatography) on a reversed-phase column (C18) using the following methods: ^[a] […] Calibration was carried out using straight-chain alkan-2-ones (having 3 to 16 carbon atoms) with known log P values. The values between successive alkanones are determined by linear regression.
# [4] = neutral range, ammonium acetate/acetonitrile, read-out: log P (neutral)
Compound,pest or weed control at 100 g/ha (Diabrotica balteata; 100 g/ha (=32 μg/cavity)),pest or weed control at 100 g/ha (Spodoptera frugiperda),pest or weed control at 20 ppm (Meloidogyne incognita),also measured
CCS(=O)(=O)c1ccc(-n2ncn(-c3cccc(C4(C#N)CC4)c3)c2=O)nc1-c1nc2cc(C(F)(F)C(F)(F)F)cnc2n1C [Example I-04],100%,100%,,efficacy (Nezara viridula [1]): 100%
CCS(=O)(=O)c1ccc(-n2ncn(-c3ccc(C#N)c(Cl)c3)c2=O)nc1-c1nc2cc(C(F)(F)C(F)(F)F)nnc2n1C [Example I-05],100%,100%,100%,
CCS(=O)(=O)c1ccc(-n2ncn(-c3cccc(Br)c3)c2=O)nc1-c1nc2cc(C(F)(F)C(F)(F)F)nnc2n1C [Example I-15],,100%,,efficacy (Diabrotica balteata; 100 g/ha (=32 μg/cavity)): 100%; nematicidal efficacy (Meloidogyne incognita; 20 ppm): 100%; efficacy (Nezara viridula [2]): 100%
CCS(=O)(=O)c1ccc(-n2ncn(-c3ccc(/C=N/OC)cc3)c2=O)nc1-c1nc2cc(C(F)(F)C(F)(F)F)cnc2n1C [Example I-24],100%,100%,,
CCS(=O)(=O)c1ccc(-n2ncn(-c3cccc(C4(C#N)CC4)c3)c2=O)nc1-c1nc2cc(C(F)(F)C(F)(F)F)nnc2n1C [Example I-01],100%,100%,,
CCS(=O)(=O)c1ccc(-n2ncn(-c3ccc(C#N)c(Cl)c3)c2=O)nc1-c1nc2cc(C(F)(F)C(F)(F)F)cnc2n1C [Example I-17],100%,100%,90%,efficacy (Myzus persicae): 90%
CCS(=O)(=O)c1ccc(-n2ncn(-c3ccc(I)cc3)c2=O)nc1-c1nc2cc(C(F)(F)C(F)(F)F)cnc2n1C [Example I-20],,100%,90%,pest or weed control at 125 g/ha (Diabrotica balteata): 100%; efficacy (Nezara viridula [2]): 100%
CCS(=O)(=O)c1ccc(-n2ncn(-c3cccc(F)c3)c2=O)nc1-c1nc2cc(C(F)(F)C(F)(F)F)cnc2n1C [Example I-16],100%,100%,100%,
"Cn1c(-c2nc(F)ccc2F)nc2cc(C(F)(F)C(F)(F)F)cnc21 [2-(3,6-Difluoro-2-pyridyl)-3-methyl-6-(1,1,2,2,2-pentafluoroethyl)imidazo[4,5-b]pyridine]",,,,"chromatographic logP [3, 4]: 3.3"
"CCS(=O)(=O)c1ccc(F)nc1-c1nc2cc(C(F)(F)C(F)(F)F)cnc2n1C [2-(3-Ethylsulfonyl-6-fluoro-2-pyridyl)-3-methyl-6-(1,1,2,2,2-pentafluoroethyl)imidazo[4,5-b]pyridine]",,,,"chromatographic logP [3, 4]: 3.33"
CCS(=O)(=O)c1ccc(-n2ncn(-c3cccc(Cl)c3)c2=O)nc1-c1nc2cc(C(F)(F)C(F)(F)F)cnc2n1C [Example I-19],100%,100%,,
"CCSc1ccc(F)nc1-c1nc2cc(C(F)(F)C(F)(F)F)cnc2n1C [2-(3-Ethylsulfanyl-6-fluoro-2-pyridyl)-3-methyl-6-(1,1,2,2,2-pentafluoroethyl)imidazo[4,5-b]pyridine]",,,,"chromatographic logP ([3]; acidic range, formic acid/acetonitrile, read-out: log P (acidic)): 4.05"
CCS(=O)(=O)c1ccc(-n2ncn(-c3cccc(I)c3)c2=O)nc1-c1nc2cc(C(F)(F)C(F)(F)F)cnc2n1C [Example I-18],100%,100%,,efficacy (Nezara viridula [2]): 90%
CCS(=O)(=O)c1ccc(-n2ncn(-c3ccc(F)cc3)c2=O)nc1-c1nc2cc(C(F)(F)C(F)(F)F)nnc2n1C [Example I-10],100%,100%,100%,
CCS(=O)(=O)c1ccc(-n2ncn(-c3cccc(Cl)c3)c2=O)nc1-c1nc2cc(C(F)(F)C(F)(F)F)nnc2n1C [Example I-13],100%,100%,,efficacy (Nezara viridula [2]): 100%
CCS(=O)(=O)c1ccc(-n2ncn(-c3ccc(Cl)c(C#N)c3)c2=O)nc1-c1nc2cc(C(F)(F)C(F)(F)F)cnc2n1C [Example I-07],100%,100%,100%,efficacy (Nezara viridula [1]): 100%
CCS(=O)(=O)c1ccc(-n2ncn(-c3cccc(Br)c3)c2=O)nc1-c1nc2cc(C(F)(F)C(F)(F)F)nnc2n1C [Example I-11],100%,,100%,efficacy (Spodoptera frugiperda; 100 g/ha): 100%; efficacy (Nezara viridula [2]): 90%
CCS(=O)(=O)c1ccc(-n2ncn(-c3ccc(I)cc3)c2=O)nc1-c1nc2cc(C(F)(F)C(F)(F)F)nnc2n1C [Example I-09],100%,100%,90%,
CCS(=O)(=O)c1ccc(-n2ncn(-c3ccc(Cl)c(C#N)c3)c2=O)nc1-c1nc2cc(C(F)(F)C(F)(F)F)nnc2n1C [Example I-08],100%,100%,100%,
CCS(=O)(=O)c1ccc(-n2ncn(-c3ccc(C4(C#N)CC4)cc3)c2=O)nc1-c1nc2cc(C(F)(F)C(F)(F)F)nnc2n1C [Example I-21],,100%,90%,pest or weed control at 125 g/ha (Diabrotica balteata): 100%; efficacy (Myzus persicae): 100%
